Data set [1] in a line: Selectivity index, ratio of IC50 for human NCI-H2228 cells harboring wild type KRAS to IC50 for human NCI-H358 cells harboring KRAS G12C mutant. The data set is classed as functional.
Data set [2] is described as follows: Selectivity index, ratio of IC50 for human A549 cells harboring KRAS G12S mutant to IC50 for human NCI-H358 cells harboring KRAS G12C mutant. The data set is classed as functional.
The subject of a further data set is NCI-H2228. Nature of the data set: Antiproliferative activity against human NCI-H2228 cells harboring wild type KRAS assessed as reduction in cell viability incubated for 72 hrs by MTT assay. The data set is classed as functional, cell-based. The settings on record: NCI-H2228, 72 h.
The subject of a further data set is A549. Nature of the data set: Antiproliferative activity against human A549 cells harboring KRAS G12S mutant assessed as reduction in cell viability incubated for 72 hrs by MTT assay. Format: functional, cell-based. The settings on record: A549, 72 h.
Data set [3] can be described thus: Selectivity index, ratio of IC50 for human A549 cells harboring KRAS G12S mutant to IC50 for human NCI-H23 cells harboring KRAS G12C mutant. Format: functional.
The next data set concerns NCI-H358. Nature of the data set: Antiproliferative activity against human NCI-H358 cells harboring KRAS G12C mutant assessed as reduction in cell viability incubated for 72 hrs by MTT assay. Format: functional, cell-based. As to conditions: NCI-H358, 72 h.
Data set [4] is described as follows: Selectivity index, ratio of IC50 for human NCI-H2228 cells harboring wild type KRAS to IC50 for human NCI-H23 cells harboring KRAS G12C mutant. Format: functional.
A further data set concerns NCI-H23. Nature of the data set: Antiproliferative activity against human NCI-H23 cells harboring KRAS G12C mutant assessed as reduction in cell viability incubated for 72 hrs by MTT assay. Format: functional, cell-based. As to conditions: NCI-H23, 72 h.
Data set [5] has as its target GTPase KRas (Homo sapiens) (UniProt P01116). Nature of the data set: Covalent binding affinity to 6his tagged GDP bound human wildtype KRAS expressed in Escherichia coli BL21 (DE3) cells at 200 uM incubated for 24 hrs by LC-MS/MS analysis.
Data set [6] deals with GTPase KRas (Homo sapiens), P01116 [G12C]. Nature of the data set: Inhibition of 6His tagged Mant-GDP loaded human KRAS G12C mutant (1 to 169 residues) expressed in Escherichia coli BL21 (DE3) cells assessed as inhibition of […] nucleotide exchange at 10 uM preincubated with compound for 1 hrs followed by addition of GTP and EDTA and measured every 90 sec for 2 hrs by fluorescence based assay. As to conditions: time 3.0 hrs.

For data set [7] the test system is unchanged. Nature of the data set: Inhibition of 6His tagged Mant-GDP loaded human KRAS G12C mutant (1 to 169 residues) expressed in Escherichia coli BL21 (DE3) cells assessed as inhibition of SOS1-mediated nucleotide exchange at 10 uM preincubated with compound for 1 hrs followed by addition of GTP and SOS1 protein and measured every 90 sec for 2 hrs by fluorescence based assay. As to conditions: time 3.0 hrs.

Data set [8] shares this test system. Nature of the data set: Covalent binding affinity to 6His tagged GDP bound human KRAS G12C mutant (1 to 169 residues) expressed in Escherichia coli BL21 (DE3) cells at 200 uM incubated for 24 hrs by LC-MS /MS analysis.
In the next data set the test system is NCI-H441. Nature of the data set: Antiproliferative activity against human NCI-H441 cells harboring KRAS G12V mutant assessed as reduction in cell viability incubated for 72 hrs by MTT assay. The data set is classed as functional, cell-based. The settings on record: NCI-H441, 72 h.
Data set [9] in a line: Cytotoxicity against human MRC5 cells assessed as reduction in cell viability incubated for 72 hrs by MTT assay. Format: toxicity, cell-based.
The subject of the next data set is SK-LU-1. Nature of the data set: Antiproliferative activity against human SK-LU-1 cells harboring KRAS G12D mutant assessed as reduction in cell viability incubated for 72 hrs by MTT assay. The data set is classed as functional, cell-based. The settings on record: SK-LU-1, 72 h.

Activity calls are given as the source filed them. The calls are words filed in the database; no cut-off is given here.

For the compound `O=C(CCl)NC1CCN(C(=O)c2cc(=O)c3cc(Cl)c(I)cc3[nH]2)CC1`, the “Ratio IC50” value in data set [1], in data set [2], in data set [3] and in [4] was 2 throughout. Moreover, the IC50 with NCI-H2228 was 8.6 µM; in the data set with A549, 9.8 µM; with NCI-H358, 4.5 µM; in the data set on NCI-H23, 2.7 µM.

Turning to `O=C(CCl)N1CCN(C(=O)Nc2ccc(Cl)c(C(F)(F)F)c2)CC1`, the IC50 in the data set with NCI-H2228 was 0.6 µM; with A549, 1.5 µM; in the data set with NCI-H358 it was 4.6 µM; in the data set on NCI-H23 it was 9.2 µM.

In the case of `C=CC(=O)NC1CCN(C(=O)c2cc(=O)c3cc(Cl)ccc3[nH]2)CC1`, the IC50 with NCI-H2228 is > 100 µM; in the data set on A549, > 100 µM; with NCI-H358, 29.7 µM; with NCI-H23 it was 34.8 µM.

In the case of `C=CC(=O)N1CC[C@H](NC(=O)Nc2ccc(Cl)cc2)C1`, the IC50 with NCI-H2228, in the data set on A549, in the data set with NCI-H358 and in the data set with NCI-H23 was > 100 µM each time.

Regarding `O=C(Nc1ccc(Cl)c(-c2ccccc2F)c1)NC1CCN(C(=O)CCl)CC1`, the IC50 with NCI-H2228 is 34.9 µM; in the data set on A549, > 100 µM; in the data set with NCI-H358, 37.7 µM; in the data set with NCI-H23 it was 42.8 µM.

Consider `C=CC(=O)N1CCC(NC(=O)Nc2ccc(Cl)c(C(F)(F)F)c2)CC1`, for which the IC50 is 45.8 µM with NCI-H2228, > 100 µM with A549, > 100 µM with NCI-H358 and > 100 µM with NCI-H23.

Turning to `O=C(Nc1ccc(Cl)c(C(F)(F)F)c1)N[C@H]1CCN(C(=O)CCl)C1`, the “Ratio IC50” value in data set [1], in data set [2], in [3] and in data set [4] was 3 in each case. In addition, the IC50 in the data set on NCI-H2228 is 7.3 µM; in the data set with A549, 11.3 µM; in the data set on NCI-H358, 2.4 µM; in the data set on NCI-H23, 1.5 µM.

Take `C=CC(=O)N1CCC(NC(=O)Nc2ccc(Cl)cc2)CC1`: the IC50 in the data set on NCI-H2228, in the data set with A549, in the data set on NCI-H358 and in the data set with NCI-H23 was > 100 µM throughout.

For `C=CC(=O)N1CC[C@@H](NC(=O)Nc2ccc(Cl)c(C(F)(F)F)c2)C1`, the IC50 with NCI-H2228 was 58 µM; in the data set on A549, > 100 µM; in the data set with NCI-H358, 38.1 µM; in the data set on NCI-H23, 29.7 µM.

`COc1cccc(F)c1-c1cc(NC(=O)NC2CCN(C(=O)CCl)CC2)ccc1Cl`: the IC50 with NCI-H2228 is > 100 µM; in the data set with A549 it was 66.9 µM; with NCI-H358, 27.8 µM; with NCI-H23 it was 31.1 µM.

Turning to `C=CC(=O)N1CC[C@@H](NC(=O)c2cc(=O)c3cc(Cl)c(I)cc3[nH]2)C1`, the IC50 in the data set on NCI-H2228 was determined as 24.6 µM; in the data set with A549 it was 20.3 µM; in the data set on NCI-H358 it was 10 µM; in the data set on NCI-H23, 11.6 µM.

As to `O=C(Nc1ccc(Cl)c(C(F)(F)F)c1)N[C@@H]1CCN(C(=O)CCl)C1`, the IC50 with NCI-H2228 came to 4 µM; in the data set on A549, 26.1 µM; with NCI-H358, 4.5 µM; in the data set with NCI-H23, 4.6 µM.

Consider `O=C(NC1CCN(C(=O)CCl)C1)c1cc(=O)c2cc(Cl)c(I)cc2[nH]1` (stereo not drawn), for which the IC50 was found to be 8.2 µM with NCI-H2228, 10.2 µM with A549, 5.4 µM in the data set on NCI-H358 and 3.8 µM in the data set with NCI-H23.

Regarding `C=CC(=O)N1CC[C@H](NC(=O)c2cc(=O)c3cc(Cl)c(I)cc3[nH]2)C1`, the IC50 in the data set on NCI-H2228 is 13.1 µM; with A549, 24.4 µM; in the data set on NCI-H358 it was 14.9 µM; in the data set on NCI-H23 it was 10.3 µM.

For `C=CC(=O)N1CC[C@H](NC(=O)Nc2ccc(Cl)c(C(F)(F)F)c2)C1`, the IC50 in the data set on NCI-H2228 is 38.2 µM; in the data set with A549, > 100 µM; in the data set with NCI-H358 it was 22.8 µM; in the data set with NCI-H23 it was 28.9 µM.

Turning to `C=CC(=O)NC1CCN(C(=O)c2cc(=O)c3cc(Cl)c(I)cc3[nH]2)CC1`, the IC50 with NCI-H2228 came to 31.6 µM; with A549, 22.8 µM; in the data set with NCI-H358, 19.2 µM; in the data set on NCI-H23 it was 35.5 µM.

Take `C=CC(=O)NC1CCN(C(=O)c2cc(=O)c3ccccc3[nH]2)CC1`: the IC50 with NCI-H2228 was > 100 µM; in the data set with A549 it was > 100 µM; in the data set with NCI-H358, 44.8 µM; with NCI-H23, > 100 µM.

With `C=CC(=O)NC1CCN(C(=O)c2cc(=O)c3cc(Cl)c(C(F)(F)F)cc3[nH]2)CC1`, the IC50 in the data set with NCI-H2228 amounted to 42.4 µM; in the data set with A549 it was 46.2 µM; with NCI-H358, 18.5 µM; with NCI-H23, 8.2 µM.

For the compound `C=CC(=O)N1CC[C@@H](NC(=O)Nc2ccc(Cl)c(Cl)c2)C1`, the IC50 in the data set with NCI-H2228 is 61.9 µM; in the data set on A549, > 100 µM; with NCI-H358 it was 45.5 µM; in the data set on NCI-H23, 41.4 µM.

For `C=CS(=O)(=O)N1CCC(NC(=O)Nc2ccc(Cl)c(C(F)(F)F)c2)CC1`, the IC50 worked out at 6.4 µM with NCI-H2228, 3.3 µM in the data set with A549, 4.2 µM in the data set on NCI-H358 and 2.6 µM in the data set on NCI-H23.

`C=CC(=O)N1CCC(NC(=O)Nc2ccc(Cl)c(Cl)c2)CC1`: the IC50 was 53.2 µM in the data set on NCI-H2228, > 100 µM in the data set on A549, > 100 µM in the data set on NCI-H358 and > 100 µM with NCI-H23.

In the case of `O=C(Nc1ccc(Cl)c(C(F)(F)F)c1)NC1CCN(C(=O)CCl)CC1`, the result in data set [5] was inactive. The inhibition result in data set [6] was “inactive”. Moreover, the IC50 with NCI-H2228 worked out at 10.6 µM; with A549, 8 µM; in the data set on NCI-H358, 3.1 µM; with NCI-H23, 2.3 µM. The inhibition result in data set [7] was “Active”. In [8], the outcome was Active.

With `O=C(Nc1ccc(Cl)c(Cl)c1)NC1CCN(C(=O)CCl)CC1`, the IC50 in the data set with NCI-H2228 was 9.2 µM; with A549, 7.4 µM; in the data set on NCI-H358 it was 5.5 µM; in the data set with NCI-H23, 4.8 µM.

Turning to `C=CS(=O)(=O)NC1CCN(C(=O)CNc2cc(I)c(Cl)cc2OC)CC1`, the IC50 in the data set with NCI-H441 came out at 21.5 µM; in the data set with NCI-H2228 it was 7.2 µM; in the data set with A549 it was 5.2 µM; in the data set with NCI-H358, 4.4 µM; with SK-LU-1, 22.8 µM; in the data set with NCI-H23 it was 3 µM. Besides, the IC50 at 72 h in [9] turned out to be 10.3 µM.

For `C=CC(=O)N1CC[C@@H](NC(=O)Nc2ccc(Cl)cc2)C1`, the IC50 in the data set with NCI-H2228, with A549, with NCI-H358 and with NCI-H23 was > 100 µM in each case.

On to `C=CC(=O)N1CC[C@H](NC(=O)Nc2ccc(Cl)c(Cl)c2)C1`, for which the 50% inhibitory concentration (IC50) is 65.3 µM in the data set with NCI-H2228, > 100 µM in the data set on A549, 34.2 µM in the data set with NCI-H358 and 40.8 µM with NCI-H23.

For the compound `C=CS(=O)(=O)N1CCC(NC(=O)Nc2ccc(Cl)cc2)CC1`, the IC50 in the data set with NCI-H2228 is 27.5 µM; in the data set on A549, > 100 µM; in the data set on NCI-H358, 31.9 µM; in the data set on NCI-H23, 18.9 µM.

Take `O=C(Nc1ccc(Cl)cc1)NC1CCN(C(=O)CCl)CC1`: the “Ratio IC50” value in data set [1], in data set [2], in data set [3] and in [4] was 3 throughout. Also, in [5], the outcome was inactive. Moreover, the inhibition result in [6] was “inactive”. Besides, the IC50 turned out to be 14.1 µM with NCI-H2228, 17.5 µM in the data set with A549, 3.8 µM in the data set on NCI-H358 and 5.1 µM in the data set with NCI-H23. Also, the inhibition entry in data set [7] was “Active”. Further, in data set [8], the result was Active.

As to `C=CS(=O)(=O)NC1CCN(C(=O)c2cc(=O)c3cc(Cl)c(I)cc3[nH]2)CC1`, the “Ratio IC50” value in [1], in data set [2], in data set [3] and in data set [4] was 2 in each case. Moreover, the IC50 with NCI-H2228 came out at 19.4 µM; with A549, 11.9 µM; in the data set with NCI-H358, 9.1 µM; in the data set on NCI-H23, 6.4 µM.

These data come from ChEMBL document CHEMBL5247585, “Design, synthesis, and evaluation of 4(1H)-quinolinone and urea derivatives as KRASG12C inhibitors with potent antitumor activity against KRAS-mutant non-small cell lung cancer” (Eur J Med Chem, 2022).
